# “Also recorded” adds a separate entry of the source.
# Columns and labels:
# microtubule protein = assay: Stability of microtubules against Ca++-induced depolymerization; type: biochemical, calf; conditions: 10 mM CaCl2
# Protocol: Eleutherobin and its derivatives were synthesized as described (18,19). Taxol was obtained from the Drug Development Branch, National Cancer Institute (Bethesda, Md.). All compounds were dissolved in dimethyl sulfoxide (Sigma Chemical Co., St. Louis, Mo.) at stock concentrations of 5 mM and stored at -20° C. All control samples contained an equal volume of DMSO. GTP was obtained from Sigma Chemical Co. And dissolved in sterile distilled water at a concentration of 10 mM and stored at -20° C. Microtubule protein was purified from calf brains by two cycles of temperature-dependent assembly and disassembly (20) and stored in liquid nitrogen prior to use. The anti-mouse β-tubulin monoclonal antibody T-4026 was obtained from Sigma Chemical Co.
# The ability of each compound to polymerize tubulin was evaluated by recording the change in turbidity of microtubule protein at 350 nm for 80 min in a spectrophotometer (UVIKON, Research Instruments Int., SD, Calif.). One mg of purified microtubule protein was diluted in assembly buffer containing 0.1 M MES, 1 mM EGTA, 0.5 mM MgCl2 and 3 M glycerol, pH 6.6. All compounds were evaluated at a concentration of 10 μM at 37° C. GTP was used at a final concentration of 1 mM. Microtubule stability was assessed by the addition of 10 mM Ca^++. changes from t=0-10 min were used to calculate initial slopes from the linear portion of each curve. These values were used to calculate the activity of each compound (relative to the activity of Taxol which was assigned a value of 100%).
# The ability of each compound to polymerize and/or stabilize microtubules was assessed (FIG. 7). To investigate whether eleutherobin and its derivatives shared the microtubule stabilizing properties of Taxol, 10 mM CaCl2 was added to each sample after maximum microtubule polymerization occurred, and the effects on turbidity recorded spectrophotometrically. A positive control was included in which 1 mM GTP was used to confirm the ability of GTP-stabilized microtubules to undergo Ca^++ induced depolymerization.
# The ability of this compound to stabilize microtubules formed in the presence of GTP was examined. After a period of 15 min, 10 mM Ca^++ was added and the change in turbidity recorded.
# [1] = system: Human non-small cell lung carcinoma cells, A549; assay: Cytotoxicity by counting cells after 72 h, Taxol-sensitive cells; type: cell-based
# Protocol: Taxol-resistant and sensitive cell lines were seeded into 12-well plates at a density of 5×10^4 cells per well and allowed a period of 12 h for attachment prior to treatment. […] Cells were then trypsinized and counted (Coulter counter model ZF0031, Coulter Corp., Miami, Fla.).
# [2] = system: A549-T12 (Taxol-resistant A549); assay: Cytotoxicity by counting cells after 72 h, Taxol-resistant cells; type: cell-based, human
# Protocol: (§1) Human non-small cell lung carcinoma cells, A549, were maintained in RPMI 1640 containing 10% fetal bovine serum and 1% penicillin-streptomycin (Gibco Laboratories, Grand Island N.Y.) at 37° C. in 7% CO2. The Taxol-resistant cell line A549-T12 was selected for resistance to Taxol and maintained in a final concentration of 12 nM drug (21). Human ovarian carcinoma cells SKOV3 and the MDR variant SKVBL (obtained from Dr. V. Ling) were maintained in α-mem plus ribonucleotides, deoxynucleotides, 15% fetal bovine serum and 1% penicillin-streptomycin (Gibco Laboratories) at 37° C. in 5% CO2. SKVBL cells were maintained in […] vinblastine (Sigma Chemical Co.).
# (§2) Taxol-resistant and sensitive cell lines were seeded into 12-well plates at a density of 5×10^4 cells per well and allowed a period of 12 h for attachment prior to treatment. Cells were exposed to 10-fold serial dilutions of each compound (10^-10 to 10^-6 M) for 72 h. Cells were then trypsinized and counted (Coulter counter model ZF0031, Coulter Corp., Miami, Fla.). The IC50 was determined by plotting cell number against log of the drug concentration and this was used to determine the concentration of compound resulting in 50% growth inhibition compared to untreated cells. Each cell line was assayed in a minimum of 3 independent experiments with each compound and the results expressed as the mean IC50.
# (§3) The cytotoxic efficacy of eleutherobin and its derivatives (FIG. 6) was evaluated in two drug sensitive human cancer cell lines and their Taxol-resistant counterparts. The results are summarized in Table I in order of decreasing potency. […] The Taxol-resistant cell line SKVBL overexpresses high levels of P-glycoprotein (22). […] The only difference between the two agents is the enantiomeric relationship in the carbohydrate (2'-acetylarabinose) sector (FIG. 6). […] This cell line expressed high levels of MDR1 resulting in Taxol-resistance equal or greater than 1666 -fold compared to the Taxol-sensitive SKOV3 cell line.
# (§4) ^a Cytotoxicity determined by counting cells after 72 h drug exposure.
# [3] = system: MDR1 expressing cell line derived from human colon carcinoma HCT 116 cells; conditions: cited from earlier work
# [4] = system: SKVBL (MDR variant of SKOV3); assay: Cytotoxicity by counting cells after 72 h, MDR variant cells; type: cell-based, human
# Protocol: as §1, §2, §3, §4
smiles,measurement,setting,value
CO[C@]12C=C[C@](C)(O1)[C@@H](OC(=O)/C=C/c1cn(C)cn1)C[C@H]1C(C)=CC[C@H](C(C)C)[C@H]1/C=C\2CO[C@@H]1OC[C@@H](O)[C@@H](O)[C@@H]1OC(C)=O [Eleutherobin],stabilization against Ca++-induced depolymerization (in words),microtubule protein,stabilized microtubules against Ca^++ -induced depolymerization
same,IC50,"[1]; Homo sapiens, A549, 72 h",0.006 µM
same,fold less potent than Taxol,"[1]; both sensitive cell lines (A549, SKOV3)",3 fold
same,cytotoxicity (in words),"[1]; sensitive cell lines (A549, SKOV3)",IC50 value comparable at Taxol; also recorded: within the nM range
same,fold resistance relative to the parental cell line,"[2]; A549-T12 vs A549, 4320 min",1.9 fold
same,IC50,"[2]; Homo sapiens, Lung Carcinoma A549, Resistant (A549-T12), 72 h, mean of at least three independent experiments",0.0122 µM
same,cross-resistance in A549-T12 (in words),"[2]; Taxol-resistant, not expressing P-glycoprotein",neither eleutherobin nor neo-eleutherobin displayed cross-resistance; also recorded: neither of these compounds showed cross-resistance
same,cross-resistance in MDR1 expressing HCT 116-derived cells (in words),[3],demonstrated cross-resistance in an MDR1 expressing cell line
same,IC50,"[4]; Homo sapiens, SK-OV-3, Ovarian Carcinoma SKOV3, Resistant (SKVBL), 72 h, mean of at least three independent experiments",> 1 µM
same,cross-resistance in SKVBL (in words),"[4]; MDR1 expressing cells, high P-glycoprotein",exhibited cross-resistance in an MDR1 expressing cell line; also recorded: demonstrated cross-resistance
same,fold resistance relative to the parental cell line,[4]; SKVBL vs SKOV3,≥ 1052 fold
